Experimental data: patent publication US20020103163A1, “Acetylenic sulfonamide thiol TACE inhibitors” (American Cyanamid Company, priority 1999, published 2002)

Legend:
MMP-1 = molecular target: T1, MMP-1 (Homo sapiens, UniProt P03956); test: MMP-1 inhibition (thiopeptide or fluorescent peptide substrate); assay type: biochemical
T1 sequence (P03956 100-469): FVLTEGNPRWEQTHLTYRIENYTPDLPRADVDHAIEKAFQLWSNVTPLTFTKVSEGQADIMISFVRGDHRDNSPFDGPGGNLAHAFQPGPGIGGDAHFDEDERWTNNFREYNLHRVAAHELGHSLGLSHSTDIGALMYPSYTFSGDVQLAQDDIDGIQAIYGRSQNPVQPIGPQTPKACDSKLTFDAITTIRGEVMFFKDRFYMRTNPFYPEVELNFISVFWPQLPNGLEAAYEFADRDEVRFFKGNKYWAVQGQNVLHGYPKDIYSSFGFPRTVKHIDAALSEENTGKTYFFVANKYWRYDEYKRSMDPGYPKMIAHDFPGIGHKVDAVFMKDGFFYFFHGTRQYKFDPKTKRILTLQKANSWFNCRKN
Protocol: (§1) These standard pharmacological test procedures are based on the cleavage of a thiopeptide substrates such as Ac-Pro-Leu-Gly(2-mercapto-4-methyl-pentanoyl)-Leu-Gly-OEt by the matrix metalloproteinases MMP-1, MMP-13 (collagenases) or MMP-9 (gelatinase), which results in the release of a substrate product that reacts calorimetrically with DTNB (5,5′-dithiobis(2-nitro-benzoic acid)). The enzyme activity is measured by the rate of the color increase. The thiopeptide substrate is made up fresh as a 20 mM stock in 100% DMSO and the DTNB is dissolved in 100% DMSO as a 100 mM stock and stored in the dark at room temperature. […] The buffer enzyme, vehicle or inhibitor, and DTNB/substrate are added in this order to a 96 well plate (total reaction volume of 200 μl) and the increase in color is monitored spectrophotometrically for 5 minutes at 405 nm on a plate reader and the increase in color over time is plotted as a linear line.
(§2) Alternatively, a fluorescent peptide substrate is used. […] Upon cleavage of the substrate by an MMP, the fluorescence that is generated is quantitated on the fluorescence plate reader. […] The reaction is read (excitation 340 nm, emission 444 nm) for 10 min. and the increase in fluorescence over time is plotted as a linear line.
(§3) For either the thiopeptide or fluorescent peptide test procedures, the slope of the line is calculated and represents the reaction rate. […]

MMP-9 = MMP-9 (Homo sapiens, UniProt P14780); test: MMP-9 inhibition (thiopeptide or fluorescent peptide substrate); assay type: biochemical
Chain of MMP-9 (P14780 94-707): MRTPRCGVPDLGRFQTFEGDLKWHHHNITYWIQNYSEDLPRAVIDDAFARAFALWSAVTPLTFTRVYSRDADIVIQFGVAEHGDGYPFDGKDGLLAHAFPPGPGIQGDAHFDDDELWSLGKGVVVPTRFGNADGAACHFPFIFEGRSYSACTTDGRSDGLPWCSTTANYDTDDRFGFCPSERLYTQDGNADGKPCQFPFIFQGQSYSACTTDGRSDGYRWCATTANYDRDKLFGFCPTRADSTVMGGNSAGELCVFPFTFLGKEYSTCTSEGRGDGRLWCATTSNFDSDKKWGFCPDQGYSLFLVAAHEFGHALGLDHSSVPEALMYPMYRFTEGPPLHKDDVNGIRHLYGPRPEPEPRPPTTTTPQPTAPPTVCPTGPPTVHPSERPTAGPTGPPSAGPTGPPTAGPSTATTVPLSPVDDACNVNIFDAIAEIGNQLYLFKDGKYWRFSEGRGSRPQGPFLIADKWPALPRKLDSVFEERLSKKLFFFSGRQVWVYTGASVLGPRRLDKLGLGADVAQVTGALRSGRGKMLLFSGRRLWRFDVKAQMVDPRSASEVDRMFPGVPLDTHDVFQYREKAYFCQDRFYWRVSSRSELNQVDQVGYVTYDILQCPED
Protocol: as §1, §2, §3

MMP-13 = MMP-13 (Homo sapiens, UniProt P45452); test: MMP-13 inhibition (thiopeptide or fluorescent peptide substrate); assay type: biochemical
Protocol: as §1, §2, §3

TACE = TACE (Homo sapiens, UniProt P78536); test: TACE inhibition (fluorescent peptidyl substrate); assay type: biochemical
Chain of TACE (P78536 215-824): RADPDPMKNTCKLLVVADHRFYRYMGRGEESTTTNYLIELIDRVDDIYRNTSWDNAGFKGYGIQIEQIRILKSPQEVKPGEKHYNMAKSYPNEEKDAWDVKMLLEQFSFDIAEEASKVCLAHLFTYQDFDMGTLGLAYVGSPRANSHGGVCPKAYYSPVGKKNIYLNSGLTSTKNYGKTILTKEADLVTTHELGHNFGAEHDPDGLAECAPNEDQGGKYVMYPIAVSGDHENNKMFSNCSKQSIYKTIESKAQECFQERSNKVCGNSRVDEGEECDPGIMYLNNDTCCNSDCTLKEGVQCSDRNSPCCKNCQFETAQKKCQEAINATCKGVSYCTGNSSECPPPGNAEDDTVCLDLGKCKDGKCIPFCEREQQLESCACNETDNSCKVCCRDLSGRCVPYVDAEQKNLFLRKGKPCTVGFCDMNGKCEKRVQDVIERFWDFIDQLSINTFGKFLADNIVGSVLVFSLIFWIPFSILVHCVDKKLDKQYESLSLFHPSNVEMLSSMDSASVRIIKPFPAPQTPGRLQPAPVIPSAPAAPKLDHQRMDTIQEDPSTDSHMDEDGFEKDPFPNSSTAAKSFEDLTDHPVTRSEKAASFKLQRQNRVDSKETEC
Protocol: Using 96-well black microtiter plates, each well receives a solution composed of 10 μL TACE (final concentration 1 μg/mL), 70 μL Tris buffer, pH 7.4 containing 10% glycerol (final concentration 10 mM), and 10 μL of test compound solution in DMSO (final concentration 1 μM, DMSO concentration <1%) and incubated for 10 minutes at room temperature. The reaction is initiated by addition of a fluorescent peptidyl substrate (final concentration 100 μM) to each well and then shaking on a shaker for 5 sec.
The reaction is read (excitation 340 nm, emission 420 nm) for 10 min. and the increase in fluorescence over time is plotted as a linear line. The slope of the line is calculated and represents the reaction rate.
The linearity of the reaction rate is confirmed (r^2>0.85). The mean (x±sem) of the control rate is calculated and compared for statistical significance (p<0.05) with drug-treated rates using Dunnett's multiple comparison test. Dose-response relationships can be generate using multiple doses of drug and IC50 values with 95% CI are estimated using linear regression.

THP-1 cells = test: THP-1 soluble protein assay (LPS-stimulated THP-1 cells, ELISA); assay type: cell-based; conditions: Homo sapiens
Text: Mitogenic stimulation of THP-1 cells cause differentiation into macrophage like cells with concomitant secretion of tumor necrosis factor (TNF-_) and TNF receptor (TNF-R p75/80 and TNF-R p55/60) and Interleukin-8 (IL-8), among other proteins. In addition, non-stimulated THP-1 cells shed both the p75/80 and the p55/60 receptors over time. The release of membrane bound TNF-_ and possibly TNF-R p75/80 and TNF-R p55/60, but not IL-8, is mediated by an enzyme called TNF-_ converting enzyme or TACE.
THP-1 cells (from ATCC) are a human monocytic cell line which were obtained from the peripheral blood of a person with acute monocytic leukemia. […]
To perform an assay, the THP-1 cells are co-incubated in a 24 well plate with […] of a 24 mg/ml stock of Lipopolysacharide (LPS) (Calbiochem Lot#B13189) at 37iC in 5% CO2 at a concentration of 1.091×10^6 cells/ml (1.1 ml/well) for a total of 24 hours. […] Compounds can be evaluated for their effect on basal (non-stimulated) shedding of the receptors by replacing the LPS with […] of THP-1 media. […]
In addition, at the 24 hours timepoint, and the cells for each treatment group are collected by resuspension in 500 μl/well of THP-1 media and transferred into a FACS tube. […] The samples are run on a Becton Dickinson FaxCaliber FLOW cytometry machine and the amount of dye taken up by each cell is measured in the high red wavelength (FL3). […]

- IC50 (MMP-1): 6300 nM
- IC50 (MMP-9): 2700 nM
- IC50 (MMP-13): 679 nM
- IC50 (TACE): 273 nM
Structure (SMILES): CC#CCOc1ccc(S(=O)(=O)N(C)[C@H](C)CS)cc1 [Example 8, 4-But-2-ynyloxy-N-((1R)-2-mercapto-1-methyl-ethyl)-N-methyl-benzenesulfonamide]
- inhibition at 3 µM (THP-1 cells): 3%
